In a melting point compilation (Tetko et al.; mined from patent text by program, amines drawn as free bases though some values may be those of a salt) one finds melting point data, which are given here for 86 compounds.

`NC(=O)c1cc(NCc2ccccc2)c([N+](=O)[O-])cc1[N+](=O)[O-]` yielded a melting point of 143 to 146 °C. The same measure for `CCCCCCCCCCCCCCCCCC(=O)NCC(C)(C)CO`: 44 °C; for `CCc1cn2c(N)c(Cl)cc(C(=O)NCC3CCN(CCc4ccc(C(C)(C)C)cc4)CC3)c2n1`: 220 °C. `O=C(c1ccc(Cl)cc1)N1CCc2cc(S(=O)(=O)n3cc(-c4ccccc4)[nH]c3=O)ccc21` had a melting point of 220 to 221 °C. With `CCCCCCOC(=O)Nc1ccc2c(c1)NC(=O)C2(C)C`, the melting point lay in the range of 180 to 183 °C. In the case of `C[C@H](OC(=O)NCCC(F)(F)C(F)(F)F)C(=O)N[C@@H]1C(=O)N(CCO)c2ccccc2-c2ccccc21`, the melting point fell in the range of 181 to 184 °C. `CC(C)(CNC(=O)Cc1ccccc1)NCC(O)c1cc(Cl)c(N)c(Cl)c1` (stereo unspecified) returned a melting point of 96 to 98 °C. Turning to `COc1ccc(-c2[nH]nc3c2C(=O)c2c(NC(=O)NNC(=O)c4ccccc4OC)cccc2-3)cc1`, the melting point was found to be 269 °C. The same measure for `Cc1nc2c3c(c(C(=O)N4CC(O)C4)cc2n1C)CCC1(Cc2ccccc2C1)N3`: 171 to 172 °C; for `C=C(C)C(=O)Oc1ccc2ccc(O)c(-n3nc4ccccc4n3)c2c1`: 167 to 168 °C; for `COc1cc2c(=O)n(CCCn3ccnc3)c3c4ccccc4[nH]c(=O)c3c2cc1OC`: 288 to 290 °C. The same measure for `COC(=O)c1cc(-c2ccc3c(c2)c2cc(-c4ccc(Cl)cc4Cl)c(=O)n(C)c2n3C)on1`: 280 to 281 °C. The same measure for `COc1ccc(C(=O)Nc2cc(NC(=O)c3cccc(NC(C)=O)c3)ccc2C)cc1OC`: 187 to 188 °C; for `CS(=O)(=O)OC[C@H]1CCn2c(cc3ccccc32)C1`: 114 to 115 °C. On to `COc1ccc(NC(=O)N(C)C)cc1`, for which the melting point was in the range of 126 to 130 °C. In turn, `COc1cc(SC2SCC(OC(C)=O)C(OC(C)=O)C2OC(C)=O)cc(OC)c1OC` (stereo unspecified) returned a melting point of 101 °C. For the compound `CC(C(O)c1ccc(N)cc1)N1CCC(Cc2ccccc2)CC1` (single isomer, unassigned; (-)), the melting point was in the range of 104 to 107 °C. The compound `CC(C)N[C@@H]1CCc2c(ccc(OCc3ccccc3)c2CO)[C@H]1O` (relative stereo) displayed a melting point of 138 to 139 °C. The figure for `C=CCc1cc(C)c2c(c1O)C(C)(C)C(=O)N2Cc1ccccc1` is 161 to 162 °C; for `CC(C)(C)NCC(O)COc1cccc2[nH]c(=S)[nH]c12` (stereo unspecified) it is 214 to 216 °C; for `Cc1nc(-c2ccc(C(F)(F)F)cc2)sc1Sc1ccc(Cc2nn[nH]n2)cc1` it is 177 °C. In turn, `Cc1c2c(c(Br)n1C)NC(=O)CN=C2c1ccccc1` came in with a melting point of 200 to 202 °C.

Compound `COC(=O)C12COc3cc(F)ccc3N1N=C(C(=O)Nc1ccc(C(F)(F)F)cc1)C2` (stereo unspecified) showed a melting point of 178 to 181 °C. The figure for `CC(C)(C)c1ccc(S(=O)(=O)Nc2ccc(-c3cn(C4CCCC4)c4ncnc(N)c34)cc2O)cc1` is 278 to 280 °C; for `CCCCCc1ccc(C(=O)NC2N=C(c3ccccc3)c3ccccc3NC2=O)cc1` (racemic) it is 203 to 205 °C.

As for `O=C(O)[C@H]1CCCN1C(=O)CCCc1ccccc1`, the melting point lay in the range of 86 to 87.5 °C.

On to `C=CCC(O)(C(=O)N[C@H]1CN2CCC1CC2)c1cccs1` (stereo partly specified), for which the melting point fell in the range of 54.4 to 58.3 °C. In turn, `CCCCOP(=O)(C/C=C/CC1(C(=O)NCCC)c2cc(F)ccc2-c2ccc(F)cc21)OCCCC` came in with a melting point of 142 to 146 °C. Regarding `CCc1c(-c2ccc(O)cc2)c2c(C(=O)N(C)CCN(C)C)cc3cc(OC)cc1n32`, the melting point fell in the range of 190 to 200 °C. Turning to `O=C1OCCC1C1CCc2c1[nH]c1ccccc21` (stereo unspecified), the melting point lay in the range of 155 to 157 °C.

`Cc1cc(Cc2cc(C)c(N=C=O)c(C)c2)cc(C)c1N=C=O` gave a melting point of 130 to 131 °C.

With `COc1cccc([C@H]2O[C@H](CC(=O)NCc3ccc(CC(=O)O)cc3)C(=O)N(CC(C)(C)CO)c3ccc(Cl)cc32)c1OC`, the melting point was in the range of 129 to 132 °C. The figure for `Cc1c(-c2ccccc2)n(Cc2ccccc2)c2ccc(-c3ccc(OCC#N)cc3)cc12` is 140 °C; for `CC(C)OC(=O)C=CC(=O)c1ccc(Oc2ccccc2)cc1` it is 71.5 to 72 °C; for `O=C(O)C1CCN(C(=O)OCC2c3ccccc3-c3ccccc32)CC1` it is 187 to 189 °C. The figure for `O=C1C(c2nc3c(cc2O)OCO3)c2ccccc2N1Cc1ccc(C(F)(F)F)o1` (stereo unspecified) is 161 to 163 °C; for `O=C(Nc1ccccc1)N1CCN2C(=O)OC(c3ccccc3)(c3ccccc3)C2C1` (stereo unspecified) it is 117 to 118 °C. The figure for `CCOC(=O)c1cc(Cl)nc(SCc2ccc3ccccc3c2)n1` is 95 to 96 °C; for `O=C(C1COc2ccc([N+](=O)[O-])cc21)N1CCCCC1` (stereo unspecified) it is 108 to 114 °C. In turn, `Cc1ccc(Cn2ccc(OCc3ccccc3)cc2=O)cc1` had a melting point of 143 °C. Compound `COc1cc(COc2nn(-c3ccccc3)cc2C=C(C#N)C#N)ccc1OCc1nc(-c2ccco2)oc1C` had a melting point of 190 to 191 °C. `CCC(C)(C)c1ccc(OCCCNC(=O)c2cc(N=C=S)c3ccccc3c2O)c(C(C)(C)CC)c1` registered a melting point of 91 to 94 °C. The same measure for `COc1cc(C(O)C(Cl)(Cl)Cl)cc(OC)c1O` (stereo unspecified): 160 to 162 °C; for `COc1cccc(C2(C(C)(C)O)CCN(C)CC2)c1`: 100 °C.

`CCCOC(=O)c1sc(C(=O)OCCC)c(OS(=O)(=O)c2ccc(Br)cc2)c1C` came in with a melting point of 73 to 74 °C. The same measure for `COC(=O)C(Cc1ccccc1)Oc1ccc2cc(-c3cnc(-c4cn(C)c5ccccc45)o3)ccc2c1` (stereo unspecified): 58 to 61 °C; for `COC(=O)C=Cc1cnc(C(=O)OC)cc1C(=O)OC`: 126 to 128 °C. The figure for `COc1ccc2cc(CC3=C(CC(=O)O)CCCC3=O)ccc2c1Br` is 165 to 166 °C; for `CC(=O)NC[C@H]1CN(c2ccc(N3CCC(O)(COS(C)(=O)=O)CC3)c(F)c2)C(=O)O1` it is 136 to 138 °C; for `Cc1nc(-c2ccc(F)cc2Cl)nn1-c1ccccc1C(F)(F)F` it is 116 °C.

For `Cn1ccnc1N=Cc1ccccc1`, the melting point fell in the range of 71 to 72 °C. The same measure for `O=C(NCCCCCCCNC(=O)c1ccc(OC2CCCCC2)cc1)c1ccc(OC2CCCCC2)cc1`: 144 to 145 °C. The figure for `Oc1nc2ccc3nccnc3c2nc1O` is more than 300 °C; for `Cc1oc2c(C)c(C)c(OCc3ccccc3)c(C)c2c1CN1CCC[C@H]1CO` it is 98 to 100 °C.

Turning to `COC(=O)c1ccc(C(=O)OC)c(Nc2ccccc2)c1`, the melting point lay within 85 to 87 °C. The figure for `Cc1ccc(S(=O)(=O)N2CCCC2c2nnnn2[C@@](C)(Cc2ccc(N(C(=O)OC(C)(C)C)C(=O)C3CCNCC3)cc2)C(=O)O)cc1` (stereo partly specified) is 180 to 189 °C; for `O=C1CCCCCCCCCCCCC1` it is 56 °C; for `COC(OC)c1cc(=O)c2ccccc2o1` it is 64 to 68 °C. As for `COc1ccc(O)c(CNc2cccs2)c1`, the melting point lay within 109 to 110 °C. With `CN(CCOc1ccc(NC(=O)c2cccc3c(=O)c4ccccc4[nH]c23)cc1)Cc1ccccc1`, the melting point came out at 173 °C. For `COc1cc(CCC2OC(=O)NC2=O)ccc1OCc1nc(-c2ccccc2)oc1C` (stereo unspecified), the melting point lay within 194 to 195 °C. With `O=c1cc(-c2ccc(OCCOc3ccc(-c4cc(=O)c5c(O)cc(O)cc5o4)cc3)cc2)oc2cc(O)cc(O)c12`, the melting point was 352 to 355 °C. The figure for `COc1ccc2c(c1)C(c1ccccc1)NC(=O)N2CC1CC1` (stereo unspecified) is 133 °C; for `CC1SC(=O)NN=C1c1ccc2c(c1)C(C)(C)CC(=O)N2` (stereo unspecified) it is 288 °C; for `COc1ccc(N2C(=O)C3Cc4c(ncn4Cc4ccccc4)CN3C2=S)cc1` (stereo unspecified) it is 100 to 120 °C. The figure for `CCOC(=O)c1cn(-c2nccs2)cn1` is 142 to 143 °C; for `COc1cc(C=Cc2ccc(Cl)cc2)ccc1O` it is 121 to 124 °C; for `CCCCCCCC(CC(=O)OO)CC(=O)OO` it is 19 to 22 °C. The same measure for `Fc1nc(/C=C/c2ccccc2)cn1C(c1ccccc1)(c1ccccc1)c1ccccc1`: 167 to 170 °C; for `Fc1ccc(C(CN2CCCC2)=C2SCCCS2)cc1`: 69 to 70 °C. `CC(C)Oc1ccccc1-c1ncc(C(=O)O)c(=O)[nH]1` came in with a melting point of 191 to 193 °C. Compound `NNc1c([N+](=O)[O-])cnn1-c1c(Cl)cc(C(F)(F)F)cc1Cl` came in with a melting point of 133 to 135 °C. The figure for `O=C(O)Cc1ccc(NC(=O)C=C2CC(C(=O)O)Nc3cc(Cl)cc(Cl)c32)cc1` (racemic) is more than 220 °C; for `O=C(c1cccnc1)N1CCC(c2ccccc2C(F)(F)F)=N1` it is 95 to 97 °C; for `O=C(CCCCC(=O)Oc1cc(O)cc(O)c1)Oc1cc(O)cc(O)c1` it is 251 to 255 °C. As for `O=C(CCc1ccc(F)cc1)c1cccnc1F`, the melting point was in the range of 73 to 74 °C. In turn, `CC12CCC(=O)C=C1NCC1C2CCC2(C)C(C(=S)c3ccccn3)CCC12` (stereo unspecified) showed a melting point of 190 to 202 °C. The figure for `O=C1CC[C@@H]2CCc3ccccc3[C@@H]2CN1Cc1ccccc1` (relative stereo) is 114 to 115 °C; for `Cc1[nH]n(C)c2nc(-c3ccncc3)nc(=O)c1-2` it is more than 301 °C. The same measure for `O=CC12CC(c3ccccc31)c1ccc(Cl)cc12` (stereo unspecified): 91 to 92 °C; for `COc1cccc2c1Cc1c(OC)cccc1C2(CCO)CCO`: 193 to 196 °C; for `CCOC(=O)c1cnc(S(=O)(=O)Cc2ccccc2)n1-c1c(CC)cccc1CC`: 62 to 66 °C. For `CC(C(=O)O)c1ccc2oc(-c3cccnc3)nc2c1` (stereo unspecified), the melting point is 197 to 200 °C.

For the compound `CC(C)NC1=NS(=O)(=O)c2cc(C(C)(C)C)ccc2N1`, the melting point lay within 128 to 130 °C. With `Cc1nn(-c2cccnc2)c(-c2ccccc2)c1CC(=O)O`, the melting point lay within 197 to 199 °C. The figure for `Cc1cc(C)c(C(C)(CO)c2ccc(C(C)C)cc2)c(O)c1C` (stereo unspecified) is 116 to 117 °C.
